Reference: ChEMBL document CHEMBL4814029, “Design, synthesis, and structure-activity relationship of programmed cell death-1/programmed cell death-ligand 1 interaction inhibitors bearing a benzo[d]isothiazole scaffold” (Eur J Med Chem, 2021)

Target: Programmed cell death 1 ligand 1 (Homo sapiens, UniProt Q9NZQ7)
Sequence (Q9NZQ7 whole entry): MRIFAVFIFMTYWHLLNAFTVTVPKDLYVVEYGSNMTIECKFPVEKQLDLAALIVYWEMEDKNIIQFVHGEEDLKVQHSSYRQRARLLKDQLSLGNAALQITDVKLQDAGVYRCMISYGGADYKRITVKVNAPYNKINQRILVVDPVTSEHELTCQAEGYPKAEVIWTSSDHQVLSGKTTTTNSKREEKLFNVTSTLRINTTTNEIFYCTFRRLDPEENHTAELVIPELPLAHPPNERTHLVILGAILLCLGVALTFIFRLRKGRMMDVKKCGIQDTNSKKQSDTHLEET
Assay: Inhibition of PDL1 (unknown origin)
Conditions: not given
`N#Cc1cncc(COc2cc(OC3CCc4c(-c5ccccc5)cccc43)c(Cl)cc2CN[C@@H](CO)C(=O)O)c1` (stereo partly drawn) gave an IC50 of less than 100 nM. In the case of `C[C@@H](O)[C@H](NCc1cc(Cl)c(OCc2cccc(-c3ccccc3)c2Br)cc1OCC1CC1)C(=O)O`, the IC50 is reported as 10.2 nM. Compound `N#Cc1c(NC(=O)c2nc3c(s2)CNCC3)cccc1-c1ccc2c(c1)OCCO2` has an IC50 of less than 100 nM. Compound `Cc1cc(C(=O)Nc2cccc(-c3ccc4c(c3)OCCO4)c2C)ncc1CN1CCCC[C@H]1C(=O)O` has an IC50 of less than 10 nM.

Target: Programmed cell death protein 1/Programmed cell death 1 ligand 1 (Homo sapiens, UniProt Q15116+Q9NZQ7)
Sequence (Q15116 whole entry): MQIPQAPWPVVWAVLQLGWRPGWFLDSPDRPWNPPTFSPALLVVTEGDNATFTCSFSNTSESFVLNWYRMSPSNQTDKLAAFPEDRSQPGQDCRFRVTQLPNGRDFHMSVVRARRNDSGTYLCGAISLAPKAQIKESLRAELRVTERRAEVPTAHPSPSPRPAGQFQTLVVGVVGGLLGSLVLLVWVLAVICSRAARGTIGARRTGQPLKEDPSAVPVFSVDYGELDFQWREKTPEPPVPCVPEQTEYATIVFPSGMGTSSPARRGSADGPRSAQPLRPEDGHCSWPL
Sequence (Q9NZQ7 whole entry): as the sequence (Q9NZQ7 whole entry) above
Assay: Inhibition of Tag2-PD-1/Tag1-PDL-1 (unknown origin) interaction incubated for 15 mins by TR-FRET assay
Type: protein-complex assay
Conditions: not given
`O=C(O)[C@H](CO)NCc1ccc2c(Nc3cccc(-c4ccc5c(c4)OCO5)c3Cl)nsc2c1` showed an IC50 of 34.7 nM. `C[C@H](NCc1ccc2c(Nc3cccc(-c4ccc5c(c4)OCCO5)c3Cl)nsc2c1)C(=O)O` showed an IC50 of 44.4 nM. `O[C@H]1CCN(Cc2ccc3c(Nc4cccc(-c5ccc6c(c5)OCCO6)c4Cl)nsc3c2)C1` gave an IC50 of 109 nM. `OC1CCCN(Cc2ccc3c(Nc4cccc(-c5ccc6c(c5)OCCO6)c4Cl)nsc3c2)C1` (racemic) gave an IC50 of 164 nM. With `O=C(O)C1CCN(Cc2ccc3c(Nc4cccc(-c5ccc6c(c5)OCCO6)c4Cl)nsc3c2)C1` (racemic) the IC50 was 73.3 nM. In the case of `O=C(O)[C@H](CO)NCc1ccc2c(Nc3cccc(-c4ccc5c(c4)OCCO5)c3F)nsc2c1`, the IC50 is reported as 486 nM. For `CC1(O)CCN(Cc2ccc3c(Nc4cccc(-c5ccc6c(c5)OCCO6)c4Cl)nsc3c2)C1` (racemic), the IC50 was 98.7 nM. `OC1CCN(Cc2ccc3c(Nc4cccc(-c5ccc6c(c5)OCCO6)c4Cl)nsc3c2)C1` (racemic) showed an IC50 of 58.4 nM. Compound `Cc1c(Nc2nsc3cc(CN[C@@H](CO)C(=O)O)ccc23)cccc1-c1ccc2c(c1)OCCO2` has an IC50 of 78 nM. Compound `O[C@@H]1CCN(Cc2ccc3c(Nc4cccc(-c5ccc6c(c5)OCCO6)c4Cl)nsc3c2)C1` has an IC50 of 106 nM. `O=C(O)C1CCN1Cc1ccc2c(Nc3cccc(-c4ccc5c(c4)OCCO5)c3Cl)nsc2c1` (racemic) gave an IC50 of 131 nM. With `CN(CC(=O)O)Cc1ccc2c(Nc3cccc(-c4ccc5c(c4)OCCO5)c3Cl)nsc2c1` the IC50 was 147 nM. `O=C(O)[C@@H](CO)NCc1ccc2c(Nc3cccc(-c4ccc5c(c4)OCCO5)c3Cl)nsc2c1` showed an IC50 of 10.8 nM. Work on `COc1ccc(-c2cccc(Nc3nsc4cc(CN[C@@H](CO)C(=O)O)ccc34)c2Cl)cc1OC` yielded an IC50 greater than 1000 nM. `C[C@@H](NCc1ccc2c(Nc3cccc(-c4ccc5c(c4)OCCO5)c3Cl)nsc2c1)C(=O)O` gave an IC50 of 43.4 nM. Compound `O=C(O)CNCc1ccc2c(Nc3cccc(-c4ccc5c(c4)OCCO5)c3Cl)nsc2c1` has an IC50 of 35.6 nM. Work on `OCC(CO)NCc1ccc2c(Nc3cccc(-c4ccc5c(c4)OCCO5)c3Cl)nsc2c1` yielded an IC50 of 58.3 nM. Work on `O=C(O)C1CCCN1Cc1ccc2c(Nc3cccc(-c4ccc5c(c4)OCCO5)c3Cl)nsc2c1` (racemic) yielded an IC50 of 110 nM. Compound `OC1CCN(Cc2ccc3snc(Nc4cccc(-c5ccc6c(c5)OCCO6)c4Cl)c3c2)C1` (racemic) has an IC50 of 251 nM. For `COC[C@H](NCc1ccc2c(Nc3cccc(-c4ccc5c(c4)OCCO5)c3Cl)nsc2c1)C(=O)O`, the IC50 was 79.1 nM. With `O=C(O)[C@H](CO)NCc1ccc2c(Nc3cccc(-c4ccccc4)c3Cl)nsc2c1` the IC50 was 40.3 nM. In the case of `CC1(O)CCN(Cc2ccc3snc(Nc4cccc(-c5ccc6c(c5)OCCO6)c4Cl)c3c2)C1` (racemic), the IC50 is reported as 177 nM. In the case of `COc1c(Nc2nsc3cc(CN[C@@H](CO)C(=O)O)ccc23)cccc1-c1ccc2c(c1)OCCO2`, the IC50 is reported as greater than 1000 nM. With `O=C(O)[C@H](CO)NCc1ccc2c(Nc3cccc(-c4cccc(O)c4)c3Cl)nsc2c1` the IC50 was 143 nM. For `O=C(O)[C@@H]1C[C@@H](O)CN1Cc1ccc2c(Nc3cccc(-c4ccc5c(c4)OCCO5)c3Cl)nsc2c1`, the IC50 was 17.7 nM. `O=C(O)[C@H](CO)NCc1ccc2c(Nc3cccc(-c4cccc5c4CCN5CCCN4CCC(O)C4)c3Cl)nsc2c1` (stereo partly drawn) showed an IC50 of 231 nM. Work on `OC1CCN(Cc2ccc3c(Nc4cccc(-c5ccc6c(c5)OCCO6)c4Cl)nsc3c2)CC1` yielded an IC50 of 158 nM. `O=C(O)C1CCCN(Cc2ccc3c(Nc4cccc(-c5ccc6c(c5)OCCO6)c4Cl)nsc3c2)C1` (racemic) showed an IC50 of 517 nM. For `OC1CCN(Cc2ccc3snc(Nc4cccc(-c5ccc6c(c5)OCCO6)c4Cl)c3c2)CC1`, the IC50 was 854 nM. With `O=C(O)[C@H](CO)NCc1ccc2c(Nc3cccc(-c4ccc5c(c4)OCCO5)c3Cl)nsc2c1` the IC50 was 8.5 nM. `O=C(O)C1CCN(Cc2ccc3c(Nc4cccc(-c5ccc6c(c5)OCCO6)c4Cl)nsc3c2)CC1` gave an IC50 of 60.1 nM. `O=C(O)[C@H](CO)NCc1ccc2c(Nc3cccc(-c4ccc5c(c4)OCCO5)c3)nsc2c1` showed an IC50 greater than 1000 nM. Work on `O=C(O)C[C@H](NCc1ccc2c(Nc3cccc(-c4ccc5c(c4)OCCO5)c3Cl)nsc2c1)C(=O)O` yielded an IC50 of 474 nM. Compound `O=C(O)CCCCOc1ccc(-c2cccc(Nc3nsc4cc(CN[C@@H](CO)C(=O)O)ccc34)c2Cl)cc1` has an IC50 greater than 1000 nM. For `O=C(O)C1CN(Cc2ccc3c(Nc4cccc(-c5ccc6c(c5)OCCO6)c4Cl)nsc3c2)C1`, the IC50 was 72.6 nM. In the case of `O=C(O)CCCCOc1cccc(-c2cccc(Nc3nsc4cc(CN[C@@H](CO)C(=O)O)ccc34)c2Cl)c1`, the IC50 is reported as greater than 1000 nM. Work on `OC1CCCN(Cc2ccc3snc(Nc4cccc(-c5ccc6c(c5)OCCO6)c4Cl)c3c2)C1` (racemic) yielded an IC50 of 327 nM. For `O=C(O)[C@H](CO)NCc1ccc2c(Nc3cccc(-c4ccc5nccnc5c4)c3Cl)nsc2c1`, the IC50 was greater than 1000 nM. With `CC(C)[C@H](NCc1ccc2c(Nc3cccc(-c4ccc5c(c4)OCCO5)c3Cl)nsc2c1)C(=O)O` the IC50 was 73.7 nM.

Tested on: not listed separately
Assay: Growth inhibition of CHO cells expressing PDL-1/TCRa incubated for 24 hrs by Cell Titer-Glo luminescent cell viability assay
Type: cell-based, Cricetulus griseus
Conditions: chinese hamster
For `Cc1c(COc2cc(OCc3cccc(C#N)c3)c(CN3C[C@H](O)C[C@@H]3C(=O)O)cc2Cl)cccc1-c1ccc2c(c1)OCCO2`, the GI50 at 24 h was greater than 30000 nM. Work on `O=C(O)[C@H](CO)NCc1ccc2c(Nc3cccc(-c4ccc5c(c4)OCCO5)c3Cl)nsc2c1` yielded a GI50 at 24 h greater than 30000 nM.

Tested on: not listed separately
Assay: Growth inhibition of CHO cells expressing PDL-1/TCRa measured after 24 hrs co-culturing with human Jurkat cells expressing PD-1/NFAT-Luc in presence of compound by Cell Titer-Glo luminescent cell viability assay
Type: cell-based, Cricetulus griseus
Conditions: chinese hamster
Compound `Cc1c(COc2cc(OCc3cccc(C#N)c3)c(CN3C[C@H](O)C[C@@H]3C(=O)O)cc2Cl)cccc1-c1ccc2c(c1)OCCO2` has a GI50 at 24 h greater than 30000 nM. In the case of `O=C(O)[C@H](CO)NCc1ccc2c(Nc3cccc(-c4ccc5c(c4)OCCO5)c3Cl)nsc2c1`, the GI50 at 24 h is reported as greater than 30000 nM.

Tested on: not listed separately
Assay: Inhibition of PD-1/PDL-1-mediated immune checkpoint using CHO cells expressing PDL-1/TCRa and human Jurkat cells expressing PD-1/NFAT-Luc assessed as Jurkat T lymphocyte activation measured after 6 hrs by luciferase reporter gene based luminescence assay
Conditions: not given
For `Cc1c(COc2cc(OCc3cccc(C#N)c3)c(CN3C[C@H](O)C[C@@H]3C(=O)O)cc2Cl)cccc1-c1ccc2c(c1)OCCO2`, the EC50 was 3100 nM and the inhibition was “Dose-Dependent Effect”. For `O=C(O)[C@H](CO)NCc1ccc2c(Nc3cccc(-c4ccc5c(c4)OCCO5)c3Cl)nsc2c1`, the EC50 was 5600 nM and the inhibition was “Dose-Dependent Effect”.

Tested on: not listed separately
Assay: Inhibition of PD-1/PDL-1-mediated immune checkpoint using CHO cells expressing PDL-1/TCRa and human Jurkat cells expressing PD-1/NFAT-Luc assessed as Jurkat T lymphocyte activation by measuring maximal luminescence value measured after 6 hrs by luciferase reporter gene based luminescence assay
Conditions: not given
Work on `Cc1c(COc2cc(OCc3cccc(C#N)c3)c(CN3C[C@H](O)C[C@@H]3C(=O)O)cc2Cl)cccc1-c1ccc2c(c1)OCCO2` yielded an RLU of 2240. For `O=C(O)[C@H](CO)NCc1ccc2c(Nc3cccc(-c4ccc5c(c4)OCCO5)c3Cl)nsc2c1`, the RLU was 3260.
